{
  "source": "BindingDB's records for patent US20250066353",
  "about": "(Athos Therapeutics, 2025)",
  "biological_target": "T1, Pantetheinase (Homo sapiens, UniProt O95497)",
  "T1 sequence (O95497 whole entry)": "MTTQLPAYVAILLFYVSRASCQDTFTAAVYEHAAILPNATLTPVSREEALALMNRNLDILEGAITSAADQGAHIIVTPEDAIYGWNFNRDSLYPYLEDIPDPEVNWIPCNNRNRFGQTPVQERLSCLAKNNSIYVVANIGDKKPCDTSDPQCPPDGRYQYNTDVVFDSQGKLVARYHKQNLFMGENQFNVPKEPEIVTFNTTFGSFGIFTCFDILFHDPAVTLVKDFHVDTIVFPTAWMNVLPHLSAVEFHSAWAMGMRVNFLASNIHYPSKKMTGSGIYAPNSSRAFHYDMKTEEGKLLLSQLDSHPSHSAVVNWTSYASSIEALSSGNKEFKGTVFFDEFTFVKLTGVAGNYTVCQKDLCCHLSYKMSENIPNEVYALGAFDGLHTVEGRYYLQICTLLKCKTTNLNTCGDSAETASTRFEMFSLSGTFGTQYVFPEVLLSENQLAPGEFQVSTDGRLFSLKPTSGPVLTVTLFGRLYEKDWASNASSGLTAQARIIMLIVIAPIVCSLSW",
  "assay": "VNN1 Inhibitor Binding Assay",
  "experimental": "5 μL of 3× (45 μM) of Pantothenate-AMC to achieve final concentrations of 15 μM (0.25% DMSO final) were added in a 384 well assay plate followed by the addition of 5 μL of 3× the desired concentration of the tested compounds (Compound 1; Compound 2; and RR6) in 0.75% DMSO to designated wells (0.25% of DMSO final). The range of the compound concentrations tested was 10, 3.33, 1.11, 0.37, 0.12, 0.04, 0.01, 0.0046, 0.001, and 0.0005 μM. 5 μL of 0.75% DMSO were also added to positive and negative control wells.5 μL of 1.4 ng/μL Vanain-1 was added to the assay plate to achieve a final amount of 7 ng/well, and covered with plate sealer. Another 5 μL of assay buffer was added to negative controls and the assay plate was then centrifuged briefly (1000 rpm for 30 s) in a plate centrifuge. The assay plate was incubated in the dark for 20 minutes at room temperature and immediately read on an Envision 2105, PerkinElmer multimode plate reader.The fluorescence read was captured at excitation wavelength of 355 nm and emission wavelength of 460 nm.",
  "data": [
    {"molecule": "CC(=O)NCCN1Cc2nc(NCc3cncc(C#N)c3)ccc2C1=O", "note": "[US20250066353, Compound 41]", "values": [
      {"measurement": "IC50", "result": "> 10", "unit": "µM"}
    ]}
  ]
}
